Measurements taken from PMC6973011, “Stafia‐1: a STAT5a‐Selective Inhibitor Developed via Docking‐Based Screening of in Silico O‐Phosphorylated Fragments” (Chemistry (Weinheim an Der Bergstrasse, Germany), 2019).
Like-named read-outs stand apart in the source and are kept apart here.

Tests used:
[1] = target: STAT3 (Homo sapiens, UniProt P40763); assay: Fluorescence polarization competitive binding assay, STAT3 SH2 domain; details: for inhibition at 200 µM: read-out: STAT3 inhibition at 200 μM
Text: Expression and purification of STAT1, STAT3, STAT4, STAT5a, STAT5b, STAT5a Trp566Arg, STAT5b Arg566Trp, STAT5b 6M, STAT5b 7M, STAT6, and Lck have previously been described.[4, 12] STAT proteins were purified over a single His-Bind resin (Millipore) column.
Wild-type and mutant STAT5a/b proteins used for activity analysis of 20 were purified over two successive His-Bind resin columns.[4, 13]
Fluorescence Polarization assays
Competitive binding assays based on fluorescence polarization were essentially carried out as described.[14] Unless stated otherwise, the following final concentration of proteins were used:
STAT4; 105 nM for STAT6; 30 nM for Lck. Final concentration of all peptides: 10 nM. Peptides used: 5-carboxyfluorescein-GpYLVLDKW for STAT5a/b and point mutants thereof; 5-carboxyfluorescein-GpYLPQTV-NH2 for STAT3; 5-carboxyfluorescein-GpYDKPHVL for STAT1; 5-carboxyfluorescein-GpYLPQNID-OH for STAT4; 5-carboxyfluorescein-
analysis of 20 against wild-type (wt) STAT5a/b and STAT5a/b point mutants, the following concentrations of double-purified protein were used, which reflect the approximate Kd values of the interactions with 5-carboxyfluorescein-GpYLVLDKW: STAT5a wt: 147 nM; STAT5b wt:
STAT5b 6M: 80 nM; STAT5b 7M: 282 nM. Assay buffer: 10 mM Tris (pH 8.0), 50 mM NaCl, 1 mM EDTA, 1 mM DTT, 0.1 % Nonidet P-40 substitute, and 2 % DMSO in water. A major part of the pipetting was done using a Biomek FXp sceening robot (Beckman-Coulter). Protein and test compounds were incubated for 1 h, followed by addition of the fluorescein-labeled peptide.
Fluorescence polarization was measured after another hour using an Infinite F500 plate reader (Tecan). IC50 values were converted to Ki-values using the published equation.[15]

[2] = target: T1, STAT5a (Homo sapiens, UniProt P42229); assay: Fluorescence polarization competitive binding assay, STAT5a
T1 construct: made in house
T1 sequence (P42229 1-794): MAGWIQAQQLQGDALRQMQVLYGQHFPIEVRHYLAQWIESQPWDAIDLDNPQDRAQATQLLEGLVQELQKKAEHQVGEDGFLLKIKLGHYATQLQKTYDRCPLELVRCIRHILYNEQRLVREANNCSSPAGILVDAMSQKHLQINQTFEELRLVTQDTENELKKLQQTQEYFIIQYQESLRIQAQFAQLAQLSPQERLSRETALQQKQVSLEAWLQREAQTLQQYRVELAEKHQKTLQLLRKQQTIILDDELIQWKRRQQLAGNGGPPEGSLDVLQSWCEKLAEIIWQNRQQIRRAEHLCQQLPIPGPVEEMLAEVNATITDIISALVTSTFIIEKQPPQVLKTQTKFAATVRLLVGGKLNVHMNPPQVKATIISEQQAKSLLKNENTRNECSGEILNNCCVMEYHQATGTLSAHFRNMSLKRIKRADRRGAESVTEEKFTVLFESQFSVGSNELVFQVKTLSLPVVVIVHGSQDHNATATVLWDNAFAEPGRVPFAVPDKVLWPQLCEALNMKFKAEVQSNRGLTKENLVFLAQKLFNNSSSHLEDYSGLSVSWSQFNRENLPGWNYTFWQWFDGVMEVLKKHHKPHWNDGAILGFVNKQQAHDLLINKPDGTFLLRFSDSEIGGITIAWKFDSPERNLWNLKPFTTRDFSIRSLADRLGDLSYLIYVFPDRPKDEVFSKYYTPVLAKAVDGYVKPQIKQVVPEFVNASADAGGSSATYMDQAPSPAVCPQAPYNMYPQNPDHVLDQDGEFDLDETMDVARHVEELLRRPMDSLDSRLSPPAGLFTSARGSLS

[3] = target: T2, STAT5b (Homo sapiens, UniProt P51692); assay: Fluorescence polarization competitive binding assay, STAT5b; details: for inhibition at 200 µM: read-out: STAT5b inhibition at 200 μM
T2 construct: made in house
T2 sequence (P51692 1-787): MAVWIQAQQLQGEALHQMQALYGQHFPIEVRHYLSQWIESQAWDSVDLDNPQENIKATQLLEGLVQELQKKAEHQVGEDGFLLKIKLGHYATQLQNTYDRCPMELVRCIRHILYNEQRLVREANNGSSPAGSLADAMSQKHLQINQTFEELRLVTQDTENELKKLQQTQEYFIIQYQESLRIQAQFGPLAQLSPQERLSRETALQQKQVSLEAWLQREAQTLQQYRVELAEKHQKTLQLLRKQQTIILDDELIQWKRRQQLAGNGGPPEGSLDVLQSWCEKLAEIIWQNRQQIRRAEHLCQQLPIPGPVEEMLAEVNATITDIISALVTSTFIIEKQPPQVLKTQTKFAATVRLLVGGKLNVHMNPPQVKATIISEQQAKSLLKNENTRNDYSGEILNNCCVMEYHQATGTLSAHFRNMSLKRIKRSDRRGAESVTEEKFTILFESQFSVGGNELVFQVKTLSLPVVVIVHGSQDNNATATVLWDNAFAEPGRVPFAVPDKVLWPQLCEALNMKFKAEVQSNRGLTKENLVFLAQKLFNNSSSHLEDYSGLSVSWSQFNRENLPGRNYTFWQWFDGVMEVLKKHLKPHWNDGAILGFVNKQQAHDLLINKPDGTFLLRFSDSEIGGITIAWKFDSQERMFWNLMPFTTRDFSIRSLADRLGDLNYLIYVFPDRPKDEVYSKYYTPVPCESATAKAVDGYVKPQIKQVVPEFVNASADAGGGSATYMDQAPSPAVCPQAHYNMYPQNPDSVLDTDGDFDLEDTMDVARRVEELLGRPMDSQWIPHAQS

[4] = target: T3, STAT5b‐GFP construct (Homo sapiens, UniProt P51692); details: K562 cells, 4 h treatment
T3 sequence (P51692 1-787): T2 sequence (P51692 1-787)
Experimental: (§1) 27 was tested for its ability to prevent phosphorylation of STAT5a in K562 cells, a human chronic myelogenous leukemia cell line. In these cells, both STAT5a and STAT5b are constitutively phosphorylated on Tyr694 (STAT5a) and Tyr699 (STAT5b), respectively, by Bcr‐Abl. Since phosphorylation is dependent on the function of the SH2 domain, a STAT5 SH2 domain inhibitor will reduce the ability of STAT5 to be tyrosine phosphorylated by Bcr‐Abl (Figure 5 B).
(§2) C) Effect of 27 on phosphorylation of STAT5a in STAT5a‐GFP‐transfected K562 cells, and D) on phosphorylation of STAT5b in STAT5b‐GFP‐transfected K562 cells. E, F) Quantitation of the data shown in C) (n=4), and D) (n=3), respectively. Phospho‐STAT5a/b‐GFP levels are normalized against total STAT5a/b‐GFP. All error bars represent standard deviations (s.d.).
(§3) Chronic myeloid leukemia K562 cells were obtained from DSMZ (Braunschweig, Germany). […]
(§4) Transfection of cultured K562 cells and Western blotting was performed as previously described.[14, 16] […] Primary antibodies (phospho-STAT5, STAT5, β-Actin; 1:1000, Cell Signaling) were detected using α-rabbit-HRP secondary antibody (1:3000, Dako) and ECL (Western Lightning Plus chemiluminescence reagent, Perkin-Elmer).
(§5) Visualization was carried out using an ImageQuant digital imaging system (GE Healthcare) and ImageJ software (NIH) was used for quantitative analysis.[17]

[5] = target: T4, STAT5a‐GFP fusion protein (Homo sapiens, UniProt P42229); details: K562 cells, 4 h treatment
T4 sequence (P42229 1-794): T1 sequence (P42229 1-794)
Experimental: as §1, §2, §3, §4, §5

[6] = system: endogenous STAT5a/b; assay: Phosphorylation of endogenous STAT5a/b in K562 cells (Western blot)
Experimental: In these cells, both STAT5a and STAT5b are constitutively phosphorylated on Tyr694 (STAT5a) and Tyr699 (STAT5b), respectively, by Bcr‐Abl. Since phosphorylation is dependent on the function of the SH2 domain, a STAT5 SH2 domain inhibitor will reduce the ability of STAT5 to be tyrosine phosphorylated by Bcr‐Abl (Figure 5 B).
Chronic myeloid leukemia K562 cells were obtained from DSMZ (Braunschweig, Germany).
K562 cells were cultured in RPMI 1640 medium (Gibco Life Technologies), supplemented by 10 % (v/v) FBS (Gibco Life Technologies), 2 mM L-glutamine (Gibco Life Technologies) and 1 % (v/v) penicillin/streptomycin (Gibco Life Technologies), at 37 °C, 5 % CO2 and 95 %
In brief, cells were transfected with plasmid encoding either human wild-type STAT5a-GFP or STAT5b-GFP. K562 cells (6 x 10^5 cells per well) were seeded into 24-well plate (Corning) and were transfected using Fugene HD Transfection Reagent (Promega) with a 4:1 ratio of Fugene:DNA. […] After harvesting, cells were centrifuged at 3.000 rpm at 4 °C for 5 min. […] Primary antibodies (phospho-STAT5, STAT5, β-Actin; 1:1000, Cell Signaling) were detected using α-rabbit-HRP secondary antibody (1:3000, Dako) and ECL (Western Lightning Plus chemiluminescence reagent, Perkin-Elmer).
as §5

[7] = FP assay, IC50 converted to Ki, read-out: STAT5a K i

Sequence of STAT3 (P40763 whole entry, species assumed, the tested form may be a part): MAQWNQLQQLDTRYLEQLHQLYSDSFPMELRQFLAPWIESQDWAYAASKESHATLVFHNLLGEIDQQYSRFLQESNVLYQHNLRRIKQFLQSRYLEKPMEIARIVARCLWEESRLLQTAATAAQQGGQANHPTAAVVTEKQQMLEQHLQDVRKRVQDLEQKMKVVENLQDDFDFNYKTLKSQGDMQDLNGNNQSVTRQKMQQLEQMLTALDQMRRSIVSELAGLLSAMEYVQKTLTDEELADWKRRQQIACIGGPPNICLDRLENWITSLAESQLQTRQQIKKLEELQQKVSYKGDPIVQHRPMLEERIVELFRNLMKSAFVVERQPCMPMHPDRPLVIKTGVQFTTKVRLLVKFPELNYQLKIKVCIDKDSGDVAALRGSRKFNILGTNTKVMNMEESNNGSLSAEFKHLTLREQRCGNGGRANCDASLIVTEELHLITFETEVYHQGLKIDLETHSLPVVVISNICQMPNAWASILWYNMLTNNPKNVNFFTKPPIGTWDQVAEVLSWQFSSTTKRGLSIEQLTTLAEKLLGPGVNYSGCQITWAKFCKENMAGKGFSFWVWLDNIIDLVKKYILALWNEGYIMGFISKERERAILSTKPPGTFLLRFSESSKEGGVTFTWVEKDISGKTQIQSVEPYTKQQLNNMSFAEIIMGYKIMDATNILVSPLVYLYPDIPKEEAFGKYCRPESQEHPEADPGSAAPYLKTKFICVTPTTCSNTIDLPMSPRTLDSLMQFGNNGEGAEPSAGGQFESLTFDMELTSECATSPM

Row | SMILES | inhibition at 200 µM [1] | IC50 [2] | Ki [2] | IC50 [3] | Ki [3] | also measured
1 | COc1cccc(-c2cc(OP(=O)(O)O)cc(-c3cccc(OC)c3)c2)c1 [Compound 13] | 51 ± 2% | 32.3 ± 5.7 µM | 16 ± 2.8 µM | 86.7 ± 3.1 µM | 43.1 ± 1.5 µM | –
2 | COc1ccccc1-c1cc(OP(=O)(O)O)cc(-c2ccccc2OC)c1 [Compound 14] | 28 ± 1% | 88.7 ± 6.1 µM | 43.9 ± 3 µM | 158 ± 1 µM | 78.6 ± 0.4 µM | –
3 | COc1ccc(-c2cc(OP(=O)(O)O)cc(-c3ccc(OC)c(OC)c3)c2)cc1OC [Compound 15] | 43 ± 2% | 33.4 ± 5.2 µM | 16.5 ± 2.5 µM | – | – | inhibition at 200 µM [3]: 44 ± 3%
4 | COc1cccc(-c2cc(OP(=O)(O)O)cc(-c3cccc(OC)c3OC)c2)c1OC [Compound 16] | 15 ± 2% | 45.1 ± 9.8 µM | 22.3 ± 4.8 µM | – | – | inhibition at 200 µM [3]: 40 ± 2%
5 | COc1cc(OC)cc(-c2cc(OP(=O)(O)O)cc(-c3cc(OC)cc(OC)c3)c2)c1 [Compound 17] | 50 ± 3% | 34.7 ± 4.5 µM | 17.1 ± 2.2 µM | 73.4 ± 5 µM | 36.5 ± 2.5 µM | –
6 | O=P(O)(O)Oc1cc(-c2ccc3c(c2)OCO3)cc(-c2ccc3c(c2)OCO3)c1 [Compound 18] | – | 28.4 ± 4.4 µM | 14 ± 2.1 µM | 56.4 ± 1 µM | 28 ± 0.5 µM | IC50 [1]: 129 ± 5 µM; Ki [1]: 63.8 ± 2.3 µM
7 | O=P(O)(O)Oc1cc(-c2ccc3c(c2)OCCO3)cc(-c2ccc3c(c2)OCCO3)c1 [Compound 19] | – | 22.5 ± 3.8 µM | 11.1 ± 1.9 µM | 71.2 ± 5.7 µM | 35.4 ± 2.8 µM | IC50 [1]: 104 ± 4 µM; Ki [1]: 51.2 ± 2 µM
8 | COc1ccc(-c2cc(OP(=O)(O)O)cc(-c3ccc(OC)c(OC)c3OC)c2)c(OC)c1OC [Compound 21] | 15 ± 3% | 111 ± 10 µM | 55.2 ± 4.9 µM | – | – | inhibition at 200 µM [3]: 28 ± 2%
9 | O=P(O)(O)Oc1cc(-c2cc(F)c(F)c(F)c2)cc(-c2cc(F)c(F)c(F)c2)c1 [Compound 22] | – | 21.9 ± 2.1 µM | 10.8 ± 1.1 µM | 46.9 ± 0.9 µM | 23.3 ± 0.4 µM | IC50 [1]: 102 ± 9 µM; Ki [1]: 50.4 ± 4.2 µM
10 | COc1cc(-c2cccc(OP(=O)(O)O)c2)cc(OC)c1OC [Compound 23] | 40 ± 1% | 106 ± 4 µM | 53 ± 2.1 µM | – | – | drop in activity against STAT5a on deletion of one phenyl ring of 20 ([2]; compared with 20): 5 fold; inhibition at 200 µM [3]: 39 ± 1%
11 | COc1cc(-c2cc(CP(=O)(O)O)cc(-c3cc(OC)c(OC)c(OC)c3)c2)cc(OC)c1OC [Compound 24] | – | – | – | – | – | Ki [2, 7]: 75 ± 13 µM
12 | COc1cc(-c2cc(-c3cc(OC)c(OC)c(OC)c3)cc(C(F)(F)P(=O)(O)O)c2)cc(OC)c1OC [Compound 25] | – | – | – | – | – | Ki [2, 7]: 52 ± 3 µM
13 | COc1cc(-c2cc(-c3cc(OC)c(OC)c(OC)c3)cc(C(F)P(=O)(O)O)c2)cc(OC)c1OC (stereo not drawn) [Compound 26] | – | – | – | – | – | Ki [2, 7]: 28 ± 3 µM; selectivity over STAT5b and other STAT proteins ([2]; FP assays): retained selectivity over STAT5b and other STAT proteins
14 | COc1cc(-c2cc(-c3cc(OC)c(OC)c(OC)c3)cc(C(F)P(=O)(OCOC(=O)C(C)(C)C)OCOC(=O)C(C)(C)C)c2)cc(OC)c1OC (stereo not drawn) [Compound 27] | – | – | – | – | – | phosphorylation of Tyr699 in the STAT5b-GFP construct [4]: only minimally affected; phosphorylation of STAT5a Tyr694 in the STAT5a-GFP fusion protein [5]: inhibited in a dose‐dependent manner; phosphorylation of endogenous STAT5a/b [6]: reduced to a substantially lower degree than that of STAT5a‐GFP
